Values belong to the compound of their own block, whether it stands above or below them. Residues, ends and D or L forms follow the SMILES beside them.
Assays:
[1] = target: T1, NOD2 LRR (Homo sapiens, UniProt Q9HC29); settings: read-out: Surface KD, NOD2, SPR, previously reported surface KD; cited from earlier work
[2] = target: T2, NLRP1 LRR (Homo sapiens, UniProt Q9C000); test: SPR assay, NLRP1 LRR binding to surface-tethered PG derivatives; settings: for Binding to non-PG derived compound tethered to SPR surface: NLRP1, specificity control (Figure S8); for Decrease in affinity compared to intact MDP (1): NLRP1 LRR, SPR surface KD
T2 sequence (Q9C000 791-990): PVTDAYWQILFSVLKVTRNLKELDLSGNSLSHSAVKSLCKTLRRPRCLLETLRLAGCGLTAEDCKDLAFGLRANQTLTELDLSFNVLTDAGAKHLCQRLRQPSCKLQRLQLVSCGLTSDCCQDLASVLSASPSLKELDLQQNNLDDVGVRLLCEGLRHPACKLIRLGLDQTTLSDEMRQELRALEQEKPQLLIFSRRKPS

[3] = target: T1, NOD2 LRR; test: SPR assay, NOD2 LRR binding to surface-tethered PG derivatives; settings: specificity control (Figure S8)
[4] = tested on: NOD2 R877 to alanine mutant; settings: R877A versus wild-type NOD2; cited from earlier work

T1 sequence (Q9HC29 765-1040 limits assumed): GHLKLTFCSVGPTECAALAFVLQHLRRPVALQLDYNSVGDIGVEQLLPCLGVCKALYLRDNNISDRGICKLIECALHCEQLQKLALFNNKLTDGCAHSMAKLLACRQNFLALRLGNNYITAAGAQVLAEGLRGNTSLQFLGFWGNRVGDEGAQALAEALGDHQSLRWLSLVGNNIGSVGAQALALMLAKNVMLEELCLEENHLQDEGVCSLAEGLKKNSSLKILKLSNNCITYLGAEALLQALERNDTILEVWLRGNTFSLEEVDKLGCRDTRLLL

- Binding to non-PG derived compound tethered to SPR surface [2]: did not exhibit binding
- Binding to non-PG derived compound tethered to SPR surface [3]: did not exhibit binding
Compound: N[C@H]1C(O)O[C@H](CO)[C@H](O)[C@@H]1O (some centres unmarked) [galactosamine, reference compound]

- Decrease in affinity compared to intact MDP (1) [2]: 2 fold
Compound: 6 -amino GlcNAc [Compound 2]
- Kd [1]: 354 ± 40 nM

- Binding to non-PG derived compound tethered to SPR surface [2]: did not exhibit binding
- Binding to non-PG derived compound tethered to SPR surface [3]: did not exhibit binding
Compound: C[C@H](N)C(=O)N[C@@H](C)C(=O)N[C@@H](C)C(=O)O [L-alanine tripeptide, reference compound]

Second part, the compound before the results:

Compound: 6-amino MDP [Compound 1]
- Kd [1]: 213 ± 24 nM

Compound: CC(=O)N[C@H]1C(O)O[C@H](CO)[C@@H](O)[C@@H]1O[C@H](C)C(=O)N[C@@H](C)C(=O)N[C@H](CCC(=O)O)C(N)=O (mixture of isomers) [MDP, muramyl dipeptide]
- Decrease in affinity of NOD2 for MDP on mutation of R877 to alanine [4]: 4 fold

Compound: C[C@H](N)C(=O)N[C@H](CCC(=O)O)C(N)=O [Compound 3, L-ala D-iso dipeptide] (HELM PEPTIDE1{A.[dE].[am]}$$$$V2.0)
- Decrease in affinity compared to intact MDP (1) [2]: 2 fold
- Kd [1]: 428 ± 49 nM

Compound: 1-amino MDP [Compound 6]
- Kd [1]: 700 ± 100 nM
